Results: ChEMBL document CHEMBL4261617, “Design and synthesis of a novel series of non-nucleoside HIV-1 inhibitors bearing pyrimidine and N-substituted aromatic piperazine” (Bioorg Med Chem Lett, 2018)

Legend:
[1] = test system: Human immunodeficiency virus 1; experiment: Antiviral activity against wild-type HIV1 3B infected in human MT4 cells assessed as protection against virus-induced cytopathic effect after 4 days by MTT assay; assay type: functional, organism-based; conditions: Human immunodeficiency virus 1, 3B, MT4, 96 h
[2] = Cytotoxicity against human MT4 cells assessed as reduction in cell viability after 4 days by MTT assay; assay type: cell-based
[3] = Selectivity index, ratio of CC50 for human MT4 cells to EC50 for wild-type HIV1 3B infected in human MT4 cells; assay type: toxicity, cell-based; conditions: MT4 cells infected with wild-type HIV1 3B, read-out: Ratio CC50/EC50
[4] = test system: Human immunodeficiency virus 2; experiment: Antiviral activity against HIV2 ROD infected in human MT4 cells assessed as protection against virus-induced cytopathic effect after 4 days by MTT assay; assay type: functional, organism-based; conditions: Human immunodeficiency virus 2, ISOLATE ROD, MT4, 96 h
[5] = test system: Human immunodeficiency virus 1; experiment: Antiviral activity against HIV1 RES056 harboring K103N/Y181C double mutant infected in human MT4 cells assessed as protection against virus-induced cytopathic effect after 4 days by MTT assay; assay type: functional, organism-based; conditions: Human immunodeficiency virus 1, RES056, MT4, 96 h
[6] = Solubility of the compound in DMSO at 125 ug/ml; assay type: physicochemical
[7] = target: Human immunodeficiency virus type 1 reverse transcriptase (Human immunodeficiency virus 1, UniProt Q72547); experiment: Inhibition of recombinant wild-type HIV1 GST-fused reverse transcriptase p66/p51 RNA-dependent DNA polymerase activity expressed in Escherichia coli assessed as reduction in biotin-dUTP incorporation using poly(rA)/oligo(dT)16 as template/primer after 40 mins by PicoGreen dye based spectrofluorometric analysis

| SMILES | EC50 [1] | CC50 at 96 h [2] | selectivity ratio [3] | EC50 [4] | EC50 [5] | solubility [6] | IC50 [7] |
| --- | --- | --- | --- | --- | --- | --- | --- |
| CCOC(=O)c1cnc(N2CCN(Cc3cccc(C(F)(F)F)c3)CC2)nc1Oc1c(C)cc(-c2ccc(C#N)cc2)cc1C | > 125 µM | > 125 µM | 1 | > 125 µM | – | – | – |
| CCOC(=O)c1cnc(N2CCN(Cc3ccccc3C(F)(F)F)CC2)nc1Oc1c(C)cc(-c2ccc(C#N)cc2)cc1C | > 125 µM | > 125 µM | 1 | > 125 µM | – | – | – |
| CCOC(=O)c1cnc(N2CCN(Cc3ccccc3[N+](=O)[O-])CC2)nc1Oc1c(C)cc(-c2ccc(C#N)cc2)cc1C | > 78.7 µM | ≥ 78.7 µM | 1 | > 78.7 µM | – | – | – |
| CCOC(=O)c1cnc(N2CCN(Cc3ccc(C(=O)OC)cc3)CC2)nc1Oc1c(C)cc(-c2ccc(C#N)cc2)cc1C | > 125 µM | > 125 µM | 1 | > 125 µM | – | – | – |
| CCOC(=O)c1cnc(N2CCN(Cc3ccc(C#N)cc3)CC2)nc1Oc1c(C)cc(-c2ccc(C#N)cc2)cc1C | > 125 µM | > 125 µM | 1 | > 125 µM | – | – | – |
| CCOC(=O)c1cnc(N2CCN(Cc3ccc(S(C)(=O)=O)cc3)CC2)nc1Oc1c(C)cc(-c2ccc(C#N)cc2)cc1C | > 125 µM | > 125 µM | 1 | > 125 µM | – | – | – |
| CCOC(=O)c1cnc(N2CCN(Cc3ccc([N+](=O)[O-])cc3)CC2)nc1Oc1c(C)cc(-c2ccc(C#N)cc2)cc1C | > 125 µM | > 125 µM | 1 | > 125 µM | – | – | – |
| CCOC(=O)c1cnc(N2CCN(Cc3cccc(C(=O)OC)c3)CC2)nc1Oc1c(C)cc(-c2ccc(C#N)cc2)cc1C | > 125 µM | > 125 µM | 1 | > 125 µM | – | – | – |
| CCOC(=O)c1cnc(N2CCN(Cc3cc(C)cc(C)c3)CC2)nc1Oc1c(C)cc(-c2ccc(C#N)cc2)cc1C | > 125 µM | > 125 µM | 1 | > 125 µM | – | – | – |
| CCOC(=O)c1ccc(CN2CCN(c3ncc(C(=O)OCC)c(Oc4c(C)cc(-c5ccc(C#N)cc5)cc4C)n3)CC2)cc1 | > 125 µM | > 125 µM | 1 | > 125 µM | – | – | – |
| CCOC(=O)c1cnc(N2CCN(Cc3cccc(Br)c3)CC2)nc1Oc1c(C)cc(-c2ccc(C#N)cc2)cc1C | > 125 µM | > 125 µM | 1 | > 125 µM | – | – | – |
| CCOC(=O)c1cnc(N2CCN(Cc3cccc(C#N)c3)CC2)nc1Oc1c(C)cc(-c2ccc(C#N)cc2)cc1C | > 125 µM | > 125 µM | 1 | > 125 µM | – | – | – |
| CCOC(=O)c1cnc(N2CCN(Cc3ccc(S(N)(=O)=O)cc3)CC2)nc1Oc1c(C)cc(-c2ccc(C#N)cc2)cc1C | ≥ 24.9 µM | ≥ 7.93 µM | 1 | > 7.93 µM | > 7.93 µM | Insoluble | 63.5 µM |
| CCOC(=O)c1cnc(N2CCN(Cc3ccccc3Br)CC2)nc1Oc1c(C)cc(-c2ccc(C#N)cc2)cc1C | > 125 µM | > 125 µM | 1 | > 125 µM | – | – | – |
| Cc1cc(C#N)cc(C)c1Oc1nc(Nc2ccc(C#N)cc2)nc(N)c1Br [ETRAVIRINE] | 0.0022 µM | > 2 µM | – | – | 0.015 µM | – | – |
| CCOC(=O)c1cnc(N2CCN(Cc3ccc(Br)cc3)CC2)nc1Oc1c(C)cc(-c2ccc(C#N)cc2)cc1C | > 125 µM | > 125 µM | 1 | > 125 µM | – | – | – |
| CCOC(=O)c1cnc(N2CCN(Cc3ccc(F)cc3)CC2)nc1Oc1c(C)cc(-c2ccc(C#N)cc2)cc1C | ≥ 120 µM | > 118 µM | 1 | > 118 µM | > 118 µM | Insoluble | > 120 µM |
| CCOC(=O)c1cnc(N2CCN(Cc3ccc(C(N)=O)cc3)CC2)nc1Oc1c(C)cc(-c2ccc(C#N)cc2)cc1C | > 66.5 µM | 66.5 µM | < 1 | > 66.5 µM | > 66.5 µM | Insoluble | ≥ 113 µM |
| CCOC(=O)c1cnc(N2CCN(Cc3ccccc3F)CC2)nc1Oc1c(C)cc(-c2ccc(C#N)cc2)cc1C | > 125 µM | > 125 µM | 1 | > 125 µM | – | – | – |
| Cc1ccnc2c1NC(=O)c1cccnc1N2C1CC1 [NEVIRAPINE] | 0.1 µM | > 4 µM | – | – | > 4 µM | – | – |
| CCOC(=O)c1cnc(N2CCN(Cc3cc(F)cc(F)c3)CC2)nc1Oc1c(C)cc(-c2ccc(C#N)cc2)cc1C | > 125 µM | > 125 µM | 1 | > 125 µM | – | – | – |
| CCOC(=O)c1cnc(N2CCN(Cc3cccc(C(N)=O)c3)CC2)nc1Oc1c(C)cc(-c2ccc(C#N)cc2)cc1C | 3.36 µM | 14.8 µM | 4 | > 14.8 µM | > 14.8 µM | Insoluble | ≥ 93.1 µM |
| CCOC(=O)c1cnc(N2CCN(Cc3ccccc3C#N)CC2)nc1Oc1c(C)cc(-c2ccc(C#N)cc2)cc1C | > 125 µM | > 125 µM | 1 | > 125 µM | – | – | – |
| CCOC(=O)c1cnc(N2CCN(Cc3cccc(F)c3)CC2)nc1Oc1c(C)cc(-c2ccc(C#N)cc2)cc1C | > 125 µM | > 125 µM | 1 | > 125 µM | – | – | – |
| CCOC(=O)c1cnc(N2CCN(Cc3ccc(C(F)(F)F)cc3)CC2)nc1Oc1c(C)cc(-c2ccc(C#N)cc2)cc1C | > 125 µM | > 125 µM | 1 | > 125 µM | – | – | – |
| CCOC(=O)c1cnc(N2CCN(Cc3ccccc3C(=O)OC)CC2)nc1Oc1c(C)cc(-c2ccc(C#N)cc2)cc1C | > 125 µM | > 125 µM | 1 | > 125 µM | – | – | – |
| CCOC(=O)c1cnc(N2CCN(Cc3cccc([N+](=O)[O-])c3)CC2)nc1Oc1c(C)cc(-c2ccc(C#N)cc2)cc1C | 31.5 µM | > 125 µM | > 4 | > 125 µM | > 125 µM | Insoluble | 114 µM |
| CCOC(=O)c1cnc(N2CCN(Cc3cccc(OC)c3)CC2)nc1Oc1c(C)cc(-c2ccc(C#N)cc2)cc1C | > 125 µM | > 125 µM | 1 | > 125 µM | – | – | – |
